In patent publication US5262520A, “Peptides and antibodies that inhibit integrin-ligand binding” (The Scripps Research Institute, priority 1990, dated 1993):
Where no end group is shown, it is not given here.

Columns and labels:
[1] = target: T1, ^125 I-fibrinogen with immobilized p1 peptide (Homo sapiens, UniProt P08514); assay: Inhibition of 125I-fibrinogen binding to immobilized p1 peptide; settings: for inhibition of fibrinogen binding to immobilized p1 (in words): text summary of Table 7
T1 construct: for GPIIb from residue 296; made in house; no expression host
Experimental: Polypeptides p1, p1', and controls were immobilized on 96-well Immulon-2 microtiter plates (Dynatech Laboratories, VA). The peptides were added to the plates and maintained at 4 C for 24 hours after which the plates were washed with Hepes-Tyrode's buffer (pH 7.4) containing Tween-20. The plates were post-coated with 3% BSA for 1 hr. at 37° C. and then washed again. ^125 I-fibrinogen (50 μL at 50 nM) was allowed to bind to the peptide-coated wells for 24 hours at 22° C. which were then extensively washed and counted for bound radioactivity.
Cation dependence of binding was established in the presence of EDTA (5 mM). Two gamma-chain peptides of fibrinogen (HHLGGAKQAGDV and KYGGHHLGGAHQAGDV) inhibited the interaction of fibrinogen with immobilized pl. […] These observations are consistent with the hypothesis that RGD gamma-chain peptides interact with the same sites in GPIIb-IIIa.

GPIIb = target: T2, GPIIb (Homo sapiens, UniProt P08514); assay: Chemical crosslinking of 125I-K16 to GPIIb on platelets; assay type: binding
T2 construct: endogenous in cells; host or cells: washed human platelets from fresh blood
Excerpt: Platelets were isolated from fresh human blood collected into acid/citrate/dextrose by differential centrifugation followed by gel filtration on Sepharose 2B in divalent ion-free Tyrode's buffer, pH 7.3, containing 0.1% bovine serum albumin. See, Marguerie et al., J. Biol. Chem., 225:154-161 (1980).
Platelet binding of K16 followed the protocols previously described for measuring platelet interactions with adhesive proteins and with this and other peptides. See, Ginsberg et al., J. Biol. Chem., 260:3931-3936 (1985); Lam et al., Fed. Proc. Fed. Am. Soc. Exp. Biol., 44:1126 (1985); and Marguerie et al., supra. Briefly, platelets were suspended at 4×10^8 /ml in divalent ion-free Tyrode's albumin buffer. Unless otherwise specified, Ca^2+ was added to a final concentration of 1 mM. The platelet stimulus used was 0.5 unit/ml alpha-thrombin. In assays in which fibrinogen and thrombin were present, 30 nM D-phenylalanyl-L-prolyl-arginine ketone (Calbiochem, La Jolla, Ca.) was added to the platelet suspension 5 minutes after addition of thrombin and 5 minutes before addition of fibrinogen. The radiolabeled peptide was then added to […] stimulated or nonstimulated platelets at a concentration of 30 μM, and binding proceeded for 45 min at 22° C. The selected cross-linking agent was then added. The cross-linking agent used in this study, bis(sulfosuccinimidyl) suberate (BS^3), purchased from Pierce Chemical Co. was dissolved in PBS immediately prior to use and admixed with the platelets to a final concentration of 0.2 mM. The cross-linking reactions were terminated after 10 min at 22° C. by addition of 10 mM Tris, pH 7.0.
The cell-bound ligand was recovered by centrifugation through 20% sucrose, and the cells were extracted in PBS containing 1% Nonidet P40 and 10 mM N-ethylmaleimide (Sigma). Extrated proteins were precipitated with 10% trichloroacetic acid, and the pellet obtained after centriguation was washed three times with cold 85% ethanol. The cross-linked samples were analyzed by electrophoresis (SDS-PAGE) on polyacrylamide vertical slab gels in the buffer system of Laemmli, Nature, 227 […] (1970). For disulfide bond reduction, the samples were treated with 5% 2-mercaptoethanol. Gels were dried and autoradiograms were developed with Kodak X-Omat AR films. Molecular weights were estimated on the basis of electrophoretic mobility relative to standards obtained from Diversified Biotech (MA).
Cross-linked samples were immunoprecipitated using a monoclonal antibody designated PMI-1, which recognizes the heavy chain of GPIIb. Loftus et al., Proc. Natl. Acad. Sci. USA. 84:7114 (1987). […]

[2] = GPIIb:K16 complex, gel under reducing conditions, excised and counted

## O=C(O)CN(CCN(CC(=O)O)CC(=O)O)CC(=O)O [EDTA]
[1]; inhibitor 5000 μM
  % Inhibition of ^125 I-fibrinogen binding to p1: 90 ± 8%

## N=C(N)NCCC[C@H](N)C(=O)NCC(=O)N[C@@H](CC(=O)O)C(=O)N[C@@H](CO)C(=O)O [RGDS]
[1]; inhibitor 200 μM
  inhibition at 200 µM: 52 ± 15%

## Albumin
[1]; inhibitor 2 μM
  % Inhibition of ^125 I-fibrinogen binding to p1: 12 ± 4%
[1]
  inhibition of fibrinogen binding to immobilized p1 (in words): minimal inhibition

## Fibrinogen
[1]; inhibitor 2 μM
  % Inhibition of ^125 I-fibrinogen binding to p1: 82 ± 1.2%

## GRGESP [GRGESP]
[1]; inhibitor 200 μM
  inhibition at 200 µM: 16 ± 7%

## HHLGGAKQAGDV [HHLGGAKQAGDV]
[1]; inhibitor 200 μM
  inhibition at 200 µM: 57 ± 11%

## KYGGHHLGGAKQAGDV [K16, peptide derived from fibrinogen gamma chain]
GPIIb; 50-fold excess of nonlabeled K16, thrombin-stimulated platelets, FIG. 2A
  crosslinking of the radiolabeled peptide to the cells: abolished the crosslinking
GPIIb; [2]
  radioactivity in the position of light chain of GPIIb: < 2%
  radioactivity in the position of the heavy chain of GPIIb: 98%
GPIIb; thrombin stimulation relative to nonactivated platelets, 4 experiments
  increase of K16 crosslinking to GPIIb: 12 fold
[1]; inhibitor 200 μM
  % Inhibition of ^125 I-fibrinogen binding to p1: 54 ± 12%
[1]
  inhibition of fibrinogen binding to immobilized p1 (in words): inhibited

## YVTAGRGDSPASSK [YVTAGRGDSPASSK]
[1]; inhibitor 200 μM
  inhibition at 200 µM: 61 ± 16%
